Source: patent US6365753B1, “Phthalimides and herbicide containing the same as active component” (Mitsubishi Chemical Corporation, priority 1998, dated 2002)

Key:
Type in all cases: in vivo
Echinochloa crus-galli [1] = test: Submerged treatment test; conditions: 10 g/a active ingredient, treated 5th day from sowing, examined on the 2.8th day from treatment, herbicidal index
Protocol: (§1) Alluvial soil from a paddy field was put in a resin-made pot having an area of 200 cm^2. After fertilization, an adequate amount of water was added, and the soil was puddled and leveled. Seeds of Echinochloa crus-galli, Monochoria vaginalis, Rotala indica and Scirpus juncoides were sowed within a layer 0.5 cm below the surface of the soil. Water was poured onto the soil to keep a water depth of 3.5 cm.
(§2) On the 5th day from the sowing, the emulsifiable concentrate containing the compound of the invention as an active ingredient which was prepared in Formulation Example 3 was diluted with water. A prescribed amount of the diluted composition was dropped to the water so as to give 10 g of the active ingredient per are.
(§3) Cultivation was continued in a greenhouse, and the herbicidal effect was examined on the […] from the treatment. The results obtained are shown in Table 4 (the compound numbers in Table 4 correspond to those in Tables 1 and 2). The herbicidal effect was evaluated in terms of herbicidal index based on Y(%) obtained from equation:
(§4) y=[1−(Weight of weeds above the ground in a treated pot)/(Weight of weeds above the ground in a non-treated pot)]×100 (%)

Scirpus juncoides = test: Submerged treatment test; conditions: 10 g/a active ingredient, treated 5th day from sowing, examined on the 2.8th day from treatment, herbicidal index
Protocol: as §1, §2, §3, §4

Monochoria vaginalis = test: Submerged treatment test; conditions: 10 g/a active ingredient, treated 5th day from sowing, examined on the 2.8th day from treatment, herbicidal index
Protocol: as §1, §2, §3, §4

Rotala indica = test: Submerged treatment test; conditions: 10 g/a active ingredient, treated 5th day from sowing, examined on the 2.8th day from treatment, herbicidal index
Protocol: as §1, §2, §3, §4

Echinochloa crus-galli [2] = test: Foliar treatment test (1) post-emergence application; conditions: foliar treatment post-emergence at 1.0- to 2.0-leaf stage, 10 g/a active ingredient, 21st day from treatment; herbicidal index
Protocol: (§5) Volcanic ash soil from a field was put in a resin-made pot having an area of 200 cm^2. After fertilization, the seeds of Brassica juncea, Ipomoea purpurea, Echinochloa crus-galli and Alopeculus aequalis were cast on the soil and uniformly covered with the soil.
(§6) Cultivation was continued in a greenhouse, and when the weeds reached the 1.0- to 2.0-leaf stage, a prescribed amount of the emulsifiable concentrate comprising the compound of the invention as an active ingredient which was prepared in Formulation Example 3 as diluted with water was sprayed uniformly to the weeds by means of a small-sized power pressure spray to give 10 g of the active ingredient per are.
(§7) Thereafter, cultivation was further continued in the greenhouse, and the herbicidal effect was examined on the 21st day from the treatment. The results obtained are shown in Table 6 (the compound numbers in Table 6 correspond to those in Tables 1 and 2). The herbicidal effect was evaluated based on the same criteria as in Test Example 1.

Brassica juncea = test: as above; conditions: foliar treatment post-emergence at 1.0- to 2.0-leaf stage, 10 g/a active ingredient, 21st day from treatment; herbicidal index
Protocol: as §5, §6, §7

Alopeculus aequalis = test: as above; conditions: foliar treatment post-emergence at 1.0- to 2.0-leaf stage, 10 g/a active ingredient, 21st day from treatment; herbicidal index
Protocol: as §5, §6, §7

Ipomoea purpurea = test: as above; conditions: foliar treatment post-emergence at 1.0- to 2.0-leaf stage, 10 g/a active ingredient, 21st day from treatment; herbicidal index
Protocol: as §5, §6, §7

Chenopodium album = test: Soil treatment test pre-emergence application; conditions: 10 g/a active ingredient, 28th day from treatment, herbicidal index
Protocol: (§8) Volcanic ash soil from a field was put in a resin-made pot having an area of 200 cm^2. After fertilization, soil previously mixed uniformly with the seeds of Digitaria ciliaris, Setaria viridis, Chenopodium album and Polygonum lapathifolium was scattered on the soil. The emulsifiable concentrate comprising the compound of the invention as an active ingredient which was obtained in Formulation Example 3 was diluted with water, and a prescribed amount of the diluted composition was sprayed uniformly to the surface of the soil by means of a small-sized power pressure spray to give 10 g of the active ingredient per are.
as §7, with “was” for “was further”, “in a” for “in the”, “the 28th” for “the 21st”, “Table 5” for “Table 6”

Setaria viridis = test: Soil treatment test pre-emergence application; conditions: 10 g/a active ingredient, 28th day from treatment, herbicidal index
Protocol: as §8
as §7, with “was” for “was further”, “in a” for “in the”, “the 28th” for “the 21st”, “Table 5” for “Table 6”

Digitaria ciliaris = test: Soil treatment test pre-emergence application; conditions: 10 g/a active ingredient, 28th day from treatment, herbicidal index
Protocol: as §8
as §7, with “was” for “was further”, “in a” for “in the”, “the 28th” for “the 21st”, “Table 5” for “Table 6”

Polygonum lapathifolium = test: Soil treatment test pre-emergence application; conditions: 10 g/a active ingredient, 28th day from treatment, herbicidal index
Protocol: as §8
as §7, with “was” for “was further”, “in a” for “in the”, “the 28th” for “the 21st”, “Table 5” for “Table 6”
Also: ranges in brackets are in %.

Compound	Herbicidal Effect Echinochloa crus-galli (Echinochloa crus-galli [1])	Herbicidal Effect Scirpus juncoides (Scirpus juncoides)	Herbicidal Effect Monochoria vaginalis (Monochoria vaginalis)	Herbicidal Effect Rotala indica (Rotala indica)	Herbicidal Effect Echinochloa crus-galli (Echinochloa crus-galli [2])	Herbicidal Effect Brassica juncea (Brassica juncea)	Herbicidal Effect Alopeculus sequalis (Alopeculus aequalis)	Herbicidal Effect Ipompoea-purpurea (Ipomoea purpurea)	Herbicidal Effect Chenopodium album (Chenopodium album)	Herbicidal Effect Setaria viridis (Setaria viridis)	Herbicidal Effect Digitaria ciliaris (Digitaria ciliaris)	Herbicidal Effect Polygonum lapathifolium (Polygonum lapathifolium)
C=CCNC(=O)C(Cl)Cc1cc(N2C(=O)c3ccccc3C2=O)c(F)cc1Cl (stereo not drawn) [Compound 12]	5 (91-100)	1 (6-30)	5 (91-100)	5 (91-100)	4 (71-90)	5 (91-100)	2 (31-50)	5 (91-100)	5 (91-100)	4 (71-90)	4 (71-90)	4 (71-90)
CCCOC(=O)C(Cl)Cc1cc(N2C(=O)c3ccccc3C2=O)c(F)cc1Cl (stereo not drawn) [Compound 6]	5 (91-100)	5 (91-100)	5 (91-100)	5 (91-100)	2 (31-50)	5 (91-100)	2 (31-50)	5 (91-100)	5 (91-100)	0 (0-5)	0 (0-5)	5 (91-100)
CC(C)OC(=O)C(Cl)Cc1cc(N2C(=O)c3ccccc3C2=O)c(F)cc1Cl (stereo not drawn) [Compound 7, Isopropyl 2-Chloro-3-(2-chloro-4-fluoro-5-phthalimidophenyl)propionate]	5 (91-100)	5 (91-100)	5 (91-100)	5 (91-100)	3 (51-70)	5 (91-100)	2 (31-50)	5 (91-100)	5 (91-100)	1 (6-30)	1 (6-30)	5 (91-100)
CCOC(=O)C(Cl)Cc1cc(N2C(=O)c3ccc(F)cc3C2=O)c(F)cc1Cl (stereo not drawn) [Compound 15, Ethyl 2-Chloro-3-[2-chloro-4-fluoro-5-(4-fluorophthalimido)phenyl]propionate]	4 (71-90)	3 (51-70)	5 (91-100)	5 (91-100)	4 (71-90)	5 (91-100)	4 (71-90)	5 (91-100)	5 (91-100)	2 (31-50)	2 (31-50)	5 (91-100)
CN(C)C(=O)C(Cl)Cc1cc(N2C(=O)c3ccccc3C2=O)c(F)cc1Cl (stereo not drawn) [Compound 14]	5 (91-100)	3 (51-70)	5 (91-100)	5 (91-100)	3 (51-70)	5 (91-100)	4 (71-90)	5 (91-100)	5 (91-100)	3 (51-70)	3 (51-70)	5 (91-100)
